Measurements as given in patent US11731982B2, “Biotin derivatives” (LIFE TECHNOLOGIES CORPORATION, priority 2010, dated 2023).

Assays:
[1] = target: T1, M-280 Streptavidin Dynabeads (streptavidin) (Streptomyces avidinii, UniProt P22629); assay: Fluorescent capture and release assay on M-280 Streptavidin Dynabeads; assay type: binding
T1 construct: purchased Invitrogen
Protocol: In order to evaluate the binding affinity and reversibility of N3′-ethyl biotin with streptavidin, a simple fluorescent binding and release assay was designed. Briefly, N3′-ethyl biotin-AF488 conjugate 117 was incubated with M-280 Streptavidin Dynabeads in pH 7.4 PBS buffer. After 25 min incubation at room temperature, the magnetic beads were separated from the supernatant, which was used to measure the capture efficiency, by measuring the fluorescent intensity of the supernatant solution to determine the amount that was not captured. Then, the N3′-ethyl biotin 117 bound magnetic beads were washed with PBS buffer to remove weak or non-specific binding. The reversibility was tested by incubating the N3′-ethyl biotin 117 bound magnetic beads with 2 mM biotin in PBS buffer at room temperature for 5 min, then the magnetic beads were concentrated by a magnet, and the fluorescent intensity in the solution was measured to determine the amount that was released. As a control, biocytin-AF488 conjugate was also tested in the same assay format.
The details of fluorescent capture and release assay were as follows. 100 μL of M280 Streptavidin Dynabeads (10 mg/mL, Invitrogen) was transferred to a 1.5 mL centrifuge tube, and washed with 500 μL PBS three times. […]

streptavidin = target: T2, streptavidin (Streptomyces avidinii, UniProt P22629); assay: Kinetic measurement of rate constants, label-free ForteBio system, N3′-ethyl biotin immobilized on sensor tips; assay type: binding
T2 construct: purchased ForteBio
Protocol: The binding constant and on-and-off rate constant of N3′-ethyl biotin with streptavidin were tested using a label-free ForteBio system. The N3′-ethyl biotin 117 was covalently immobilized to amine reactive sensor tips from ForteBio. To generate the association curve, the N3′-ethyl biotin labeled biosensor tips were incubated with streptavidin at 25° C. The dissociation curve was determined by incubating the streptavidin bound sensor tips in PBS buffer described above, as well as in PBS buffer containing 2 mM biotin at 25° C. […] The dissociation constant kD of N3′-ethyl biotin is about 0.8 nM.
The details of fluorescent capture and release assay were follows. All interaction analyses were conducted at 25° C. in kinetic buffer (PBS, 0.1% BSA, 0.05% Tween-20, pH 7.2). The amine reactive biosensor tips from ForteBio were prewet for 20 min in water prior to use. The prepared samples and buffers were added to a 96-well microplate at 200 μL per well according the following sample layout, and the entire 96-well plate was agitated at 1000 rpm. Eight biosensor tips were performed the kinetic assay in parallel. Each amine reactive biosensor tip was equilibrated in MES buffer for 5 min, then activated with EDC/NHS for 5 min. The activated biosensor tip was labeled with 2 mM N3′-ethyl biotin 117 for 10 min, then quenched with 1 M ethanolamine for 5 min. The N3′-ethyl biotin 117 immobilized biosensor tip was incubated in kinetic buffer for 5 min to generate baseline, then incubated with 2 μg/mL streptavidin in kinetic buffer or kinetic buffer (control) at 1000 rpm for 10 min to generate association curve, followed by incubation with kinetic buffer or 2 mM biotin in kinetic buffer at 1000 rpm for 10 min to generate dissociation curve. The ForteBio Data Analysis Octet software was used to process the curve by subtracting sample curve from reference curve, and the kinetic data was calculated by fitting curve.

[2] = Isolation of azido sugar containing glycoproteins from Jurkat cell lysate by click labeling and streptavidin agarose; settings: elution 1% SDS in H2O at 95° C. for 5 min
Protocol: In order to isolate azido sugar containing glycoproteins from cell mixture, the Jurkat cells were cultured in Ac4GlcNAz supplemented media for 24 h. In this culturing, Jurkat cells were cultured in 100 mL RPMI 1640 media supplemented with 10% FBS at two T175 tissue culture flasks. When cell density reached ˜10×10^6 cells/mL, 100 μL of Ac4GlcNAz (100 mM in DMSO) and DMSO (control) were added, respectively. The flasks were incubated at 37° C. humidified incubator with 5% CO2 for 24 h. After incubation, the Jurkat cells were collected by centrifugation at 600×g for 5 min, and washed with PBS five times. The cell pellet was suspended in PBS to adjust the cell density at 50×10^6 cells/mL, and transferred 1 mL each to 1.5 mL tube. The cells were collected again by centrifugation at 600×g for 5 min. Then, 1 mL of 0.5% SDS/PBS was added to each tube, and lysated by sonication. The cell lysate was prepared at ˜3 mg/mL in 0.5% SDS/PBS.
Cell lysate was incubated with N3′-ethyl biotin alkyne 118 or biotin alkyne in the presence of CuSO4, THPTA, and sodium ascorbate at room temperature as described below. N3′-Ethyl biotin alkyne 118 and biotin alkyne (Invitrogen) were used to perform parallel protein enrichment experiments. Biotin alkyne has the structure: […]

T2 sequence (P22629 25-183): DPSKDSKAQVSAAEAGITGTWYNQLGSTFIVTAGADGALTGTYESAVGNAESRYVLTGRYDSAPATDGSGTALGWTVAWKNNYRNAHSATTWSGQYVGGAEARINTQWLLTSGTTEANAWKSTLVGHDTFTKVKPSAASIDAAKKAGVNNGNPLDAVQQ
T1 sequence (P22629 25-183): as above

N[C@@H](CCCCNC(=O)CCCC[C@@H]1SC[C@@H]2NC(=O)N[C@@H]21)C(=O)O [Biocytin]
Capture efficiency ([1]; 0.2 μM in PBS pH 7.4, 25 min room temperature): 96 ± 2% | Release efficiency ([1]; 2 mM biotin in PBS, room temperature 5 min): <5%

CCN1C(=O)N[C@H]2CS[C@@H](CCCCC(=O)O)[C@H]21 [N3′-ethyl biotin]
off-rate koff in the presence of 1 mM bis-biotin competing reagent (streptavidin; 1 mM bis-biotin): ~5.8×10^−2 S^−1 | on-rate kon with streptavidin (streptavidin; 25° C.): ~1.5×10^5 M^−1S^−1 | off-rate koff in the presence of 2 mM biotin (streptavidin; 25° C., 2 mM biotin): ~5.8×10^−2 S^−1 | Kd (streptavidin; 25° C., read-out: dissociation constant kD): ~0.8 nM

C#CCNC(=O)CCOCCOCCOCCOCCNC(=O)CCCC[C@@H]1SC[C@@H]2NC(=O)N[C@@H]21 [biotin alkyne]
quality of isolated proteins [2]: contaminated with streptavidin

Biotin
reversibility of streptavidin binding (streptavidin; in the presence of 1 mM bis-biotin competing reagent): almost irreversible
